In US20030158152A1, “Protease inhibitors and their pharmaceutical uses” (priority 2000, published 2003):

Each compound was assayed on HIV-1 (isolated standard virus Z2Z6) in PM1 cells (assay: Anti-HIV evaluation in HIV-1-infected PM1 lymphocytic cell culture, cell viability read by MTT technique). Conditions: 10^4 cells/well, infected with HIV-1 isolate Z2Z6 at MOI 0.002, MTT cellular viability on 6th day after infection, cut-off 50% of emission of uninfected cells.
Format: cell-based
Experimental: The pharmacological evaluation of the derivatives obtained was undertaken using test plates with a PM1 strain cell culture, lymphocytic strain established in culture, expressing the receptors CD4+ and co-receptors C5 and R4 of the HIV-1 and producers of syncytium, incubated with isolated standard virus Z2Z6 purified by passage in cell culture PM-1, having a titer of 3.96×10^2 TCID50/ml. The infection was accomplished by using plates having 96 wells, each containing 10^4 cells/well, infected with a MOI (Multiplicity Of Infection) of 0.002. The compounds being evaluated were initially diluted in dimethylsulphoxide (DMSO) to a final concentration of 10 mM and subsequently diluted in base medium RPMI 1640 to 20 μM.
Nine wells of the cells infected initially with the isolated HIV Z6 were exposed to decreasing concentrations of the compounds at 20 μM by a factor of 2 (base log 2). The culture medium employed was the RPMI 1640, added with 10% bovine foetal serum, antibiotics […]/penicilyne and L-glutamine.
The last and tenth well was kept as a control of the infection, without the presence of the drug blank. Each line of ten wells was produced in triplicate, for posterior statistical analysis. INDINAVIR was used as control, in the same dilutions as the compounds being tested. Cytotoxic analysis was carried out on a fourth set of 10 (ten) wells with cells by applying the compounds of the present invention diluted as described hereinabove. The plates were kept in an oven with 5% CO2, at a temperature of 37° C. and verified daily by optical phase microscopy for the analysis of the occurance of syncytia, which was confirmed on the 4th day after infection.
The results were analysed using a Microsoft Excel matrix, with correction of the blanks, and plotting of the emission frequency graph of the assay (in percentage, using as the 100% standard the emission from the viable cells of the wells without infection) as measurement of cellular viability. The value of 50% of emission of the standard was considered as cut-off point for the IC50 calculation. This value was attained, after plotting on the graph of the logarithmic regression curve equation, the points obtained from the IC curve prior to the formation of the plateau of the curve.
In the case of `CC(O)C(C)O` (stereo not shown) [Compound 11b], the IC50 is reported as greater than 100 µM.

Same assay, conditions: 10^4 cells/well, infected with HIV-1 isolate Z2Z6 at MOI 0.002, MTT cellular viability on 6th day after infection, cut-off 50% of emission of uninfected cells, read-out: IC50
Work on “1,4-di(benzylamine)-(2S,3S)-butane-2,3-diol [Compound 2a]” yielded an IC50 greater than 100 µM.
“1N,4N-di[1-carbetoxy-2-(1H-3-indoyl)-(1S)-ethyl]-2,3-dihydroxy-(2S,3S)-butanediamide [Compound 3g]” was tested, and the IC50 was greater than 100 µM.
“1N,4N-di[1-carbetoxy-2-methyl-(1S)-propyl]-2,3-dihydroxy-(2S,3S)-butanediamide [Compound 3b]” showed an IC50 greater than 100 µM.
“1N,4N-di[1-carbetoxy-2-phenyl-(1S)-ethyl]-2,3-dihydroxy-(2S,3S)-butanediamide [Compound 3e]” was tested, and the IC50 was greater than 100 µM.
In the case of “1N,4N-di[1-carbetoxy-3-methyl-(1S)-butyl]-2,3-dihydroxy-(2S,3S)-butanediamide [Compound 3c]”, the IC50 is reported as 10 µM.
“1N,4N-di[2-(4-hydroxyphenyl)-1-carbetoxy-1-(1S)-ethyl]-2,3-dihydroxy-(2S,3S)-butanediamide [Compound 3f]” gave an IC50 of 50 µM.
Compound “1N,4N-di[-carbetoxy-2-phenyl-(1S)-ethyl]-2,3-diacetoxy-(2S,3S)-butanediamide [Compound 10e]” has an IC50 of 50 µM.
`O=C(NCc1ccccc1)[C@@H](O)[C@H](O)C(=O)NCc1ccccc1` [Compound 1a, 1N,4N-dibenzyl-2,3-dihydroxy-(2S,3S)-butanediamide] showed an IC50 greater than 100 µM.
Compound `CCOC(=O)[C@H](C)NC(=O)[C@@H](O)[C@H](O)C(=O)N[C@@H](C)C(=O)OCC` [Compound 3a, 1N,4N-di[1-carbetoxy-(1S)-ethyl]-2,3-dihydroxy-(2S,3S)-butanediamide] has an IC50 greater than 100 µM.
Compound `CCOC(=O)[C@@H](NC(=O)[C@@H](O)[C@H](O)C(=O)N[C@H](C(=O)OCC)[C@@H](C)CC)[C@@H](C)CC` [Compound 3d, 1N,4N-di[1-carbetoxy-2-methyl-(1S,2S)-butyl]-2,3-dihydroxy-(2S,35)-butanediamide] has an IC50 greater than 100 µM.
With `CC(=O)O[C@H](C(=O)NCc1ccccc1)[C@H](OC(C)=O)C(=O)NCc1ccccc1` [Compound 8a, 1N,4N-dibenzyl-2,3-diacetoxy-(2S,3S)-butanediamide] the IC50 was greater than 100 µM.
In the case of `NNC(=O)[C@H](Cc1ccccc1)NC(=O)[C@@H](O)[C@H](O)C(=O)N[C@@H](Cc1ccccc1)C(=O)NN` [Compound 14e, 1N,4N-di[1-carbonylhydrazine-2-phenyl-(1S)-ethyl]-2,3-dihydroxy-(2S,3S)-butanediamide], the IC50 is reported as greater than 100 µM.
`O=C(NCc1ccccc1)[C@H](Cc1ccccc1)NC(=O)[C@@H](O)[C@H](O)C(=O)N[C@@H](Cc1ccccc1)C(=O)NCc1ccccc1` [Compound 15, 1N,4N-di[1-carbonylbenzylamine-2-phenyl-(1S)-ethyl]-2,3-dihydroxy-(2S,3S)-butanediamide] showed an IC50 greater than 100 µM.
With `CCOC(=O)[C@H](Cc1ccccc1)NC(=O)[C@H](OC(C)=O)[C@@H](OC(C)=O)C(=O)N[C@@H](Cc1ccccc1)C(=O)OCC` [Compound 18, 1N,4N-di[1-carbetoxy-2-phenyl-(1S)-ethyl]-2,3-diacetoxy-(2R,3R)-butanediamide] the IC50 was greater than 100 µM.
`CCOC(=O)[C@H](Cc1ccccc1)NC(=O)[C@H](O)[C@@H](O)C(=O)N[C@@H](Cc1ccccc1)C(=O)OCC` [Compound 19, 1N,4N-di[1-carbetoxy-2-phenyl-(1S)-ethyl]-2,3-dihydroxy-(2R,3R)-butanediamide] was tested, and the IC50 was greater than 100 µM.
Work on `CC(=O)O[C@@H](C(=O)NCc1ccccc1)[C@@H](OC(C)=O)C(=O)NCc1ccccc1` [Compound 20, 1N,4N-dibenzyl-2,3-diacetoxy-(2R,3R)-butanediamide] yielded an IC50 greater than 100 µM.
`O=C(NCc1ccccc1)[C@H](O)[C@@H](O)C(=O)NCc1ccccc1` [Compound 21, 1N,4N-dibenzyl-2,3-dihydroxy-(2R,3R)-butanediamide] gave an IC50 greater than 100 µM.
For `O[C@H](CNCc1ccccc1)[C@H](O)CNCc1ccccc1` [Compound 22, 1,4-di(benzylamine)-(2R,3R)-butane-2,3-diol], the IC50 was greater than 100 µM.
